Laboratory results from patent US6489307B1, “Antisense compositions targeted to β1-adrenoceptor-specific mRNA and methods of use” (University of Florida, priority 1998, dated 2002).
Entries after “also recorded” stand apart in the source; their conditions may differ.

Legend:
[1] = Liver transaminases in plasma after repeated injections; format: in vivo, rat (SHR); details: for ALT / AST: after repeated administration
Procedure: (§1) Safety profiles including liver transaminases, hematology, immune response and tissue pathology were investigated during three repeated injections of β1-AS-ODNs for extended periods of time.
Alanine aminotransferase (ALT) and aspartate aminotransferase (AST) are routinely used as a clinical index for liver function. Their levels increase substantially upon liver damage. SHR were treated with three repeated injections of β1-AS-ODN.

[2] = Hematology after repeated injections; format: in vivo, rat (SHR); details: for MPV: after repeated administration
Procedure: as §1
Hematological parameters were measured after three repeated injections of β1-AS-ODN. There was no change in total leukocyte count (WBC), platelet count, hematocrit and mean platelet volume (MPV) among three groups (Table 6).

isolated rat heart = assay: Isolated perfused heart model, myocardial ischemia-reperfusion; format: in vivo, Sprague-Dawley rats; details: for ischemia-reperfusion-induced myocardial dysfunction (LVSP, dLVP, LVEDP, CPP): ODN 200 μg/rat i.v. with liposomes 4 days before, 30 min ischemia, 30 min reperfusion; for ischemia-reperfusion induced ventricular abnormality (dLVP, CPP, LVEDP): ODN 1 mg/kg i.v. 4 days before, atenolol 2 mg/kg 6 hr before
Procedure: Male Sprague-Dawley rats weighing 200-250 g were injected intravenously with either AS-ODNs (n=7) or IN-ODNs (n=7) at a dose of 200 μg/rat 4 days before excising the hearts. DOTAP/DOPE liposomes (700 μg/rat) were given along with ODNs.
The hearts were excised rapidly and placed in ice-cold Kreb-Henseleit buffer (mmol/L: NaCl 118, KCl 4.7, KH2PO4 1.2, MgSO4 1.2, CaCl2 1.25, NaHCO3 25, and glucose 11, pH 7.4). Within one min, the hearts were transferred to an isolated perfusion apparatus and perfused via the aorta with oxygen-saturated (95% O2+5% CO2) Kreb-Henseleit buffer kept at 37° C. with the use of a MasterFlex pump (model 7015-21, Cole-Palmer Instrument Co.) according to the modified Langendroff procedure (Yang et al., 1998; Neely and Rovetto, 1975). The heart was placed in a semi-closed circulating water-warmed (37° C.) air chamber, paced atrially with a Medtronic 5320 pacemaker at a rate of 300 bpm, and perfused at a constant flow (5.5-6.0 ml/per min). Coronary perfusion pressure (CPP) was measured via a catheter placed just proximal to the aorta and connected to a Gould Statham P23ID pressure transducer. A latex balloon filled with water and connected to a Gould Statham P23ID pressure transducer was inserted in the left ventricle through the left atrium to measure left ventricular end-diastolic pressure (LVEDP), left ventricular systolic pressure (LVSP), and developed left ventricular pressure (dLVP) (dLVP=LVSP−LVEDP). LVEDP during equilibration was set at 5 to 7 mmHg. All measurements were continuously recorded on a 4-channel record (Astro-Med).
Six hearts from saline-treated rats were continuously perfused with Kreb-Henseleit buffer for 80 min and served as sham control. Hearts from other rats, after 20 min of equilibration, were subjected to 30 min of ischemia followed by 30 min of reperfusion. After completion of the study, hearts were frozen in liquid-nitrogen for β1-AR analysis by binding assay, β1-AR protein analyses by Western blot, β1-AR mRNA analysis by reverse transcription-polymerase chain reaction (RT-PCR™), and measurement of MDA.
The protective effects of β1-AS-ODNs were tested in a rat model of myocardial ischemia-reperfusion. Five groups of SD rats were studied. Sham controls (n=6) were injected with saline and perfused continuously for 80 min without ischemia/reperfusion (I/R). In other groups, hearts were perfused for 20 min and subjected to global ischemia (30 min) followed by reperfusion (30 min). […] AS-ODN+I/R (n=7) or INV-ODN+I/R (n=7) were injected iv. with 1 mg/kg β1-AS-ODN or INV-ODN 4 days before the I/R study was performed.

β1-AR = assay: β-AR density in myocardium after ischemia-reperfusion (binding assay); format: in vivo, Sprague-Dawley rats
Procedure: Membrane protein was prepared from left ventricles as previously described (Baker and Pitha, 1982). For saturation studies, 100 μg membrane protein was incubated in triplicate with ^125I-(−)iodocyanopindolol (I-CYP, NEN Life Science, 6.25-100 pM) in a total volume of 250 μl containing 50 mM Tris-HCl (pH 7.4), 5 mM MgCl2 at 36° C. for 60 min. The nonspecific and β2-adrenoceptor binding were determined in the presence of 1 μM (±)-alprenolol and […] (RBI), respectively. Then the reaction mixture was passed through Whatman GF/B glass filter using Brandel harvester and the radioactivity was counted for one min.

SHRs = assay: Blood pressure of SHRs by tail cuff; format: in vivo, rat (SHR); details: for reduction of blood pressure throughout the treatment period: repeated treatment for more than 2 months; for Duration (Range) / Range of Reduction / Maximum Reduction in Blood Pressure: single i.v. 0.5 mg/kg
Procedure: (§2) Rats were warmed for 20 to min. in cages on heating pads. The temperature was controlled at 35° C. to 37° C. Then the rats were placed in a plastic restrainer kept at 37° C. A pneumatic pulse sensor was attached to the tail. After cuff inflation, SBP was determined as the first pulsatile oscillation on the descending side of the pressure curve. HR was determined by manual counting of pulse numbers per unit time. BP and HR were recorded by a Narco physiograph. Data values of each rat were taken as an average of at least 4 stable readings. Baseline was determined by averaging 3 days of measurements before antisense administration.
Blood pressure was measured by the tail-cuff method as described above. Systolic blood pressure (SBP) was determined as the first pulsatile oscillation on the descending side of the pressure curve. Data values of each rat were taken as an average of ≧4 stable readings. Baseline was determined by averaging 3 days of measurements before antisense administration.
as §2, with “for 20-30 min” for “for 20 to min.”, “at 35-37°” for “at 35° C. to 37°”, “Then” for “Then the”, “of” for “of the”, “least four” for “least 4”, “averaging three” for “averaging 3”

[3] = 0.5 mg/kg i.v., charge ratio 1.5
[4] = 0.5 mg/kg i.v., charge ratio 2.5
[5] = 0.5 mg/kg i.v., charge ratio 3.5
[6] = single 1 mg/kg, liposomes DNA/lipid 1:0.5

5′-AGCCGTACCCGCGCC-3′ (phosphorothioate backbone, further chemistry not given here) [Inverted ODN, 15-mer inverted ODN control, reference compound]
ALT [1]: 30.5 ± 3.8 unit/ml | AST [1]: 83.0 ± 8.3 unit/ml | MPV [2]: 7.2 ± 0.20 fL | WBC ([2]; rat, in vivo): 5.75 ± 1.15 10^3/mm^3 | hematocrit ([2]; rat, in vivo): 46.0 ± 0.1% | platelet ([2]; rat, in vivo): 706 ± 28 10^3/mm^3 | ischemia-reperfusion-induced myocardial dysfunction (LVSP, dLVP, LVEDP, CPP) (isolated rat heart): no effect | ischemia-reperfusion induced ventricular abnormality (dLVP, CPP, LVEDP) (isolated rat heart): no effect | effect on β1-AR density in ischemic-reperfused myocardium (β1-AR; rat, in vivo): no effect | effect on SBP (SHRs; 1 mg/kg with liposomes): No effect | reduction of blood pressure throughout the treatment period (SHRs): no change

5′-CCGCGCCCATGCCGA-3′ (phosphorothioate backbone, further chemistry not given here) [β1-AS-ODN, 15-mer antisense ODN targeted to the AUG start codon of rat β1-AR mRNA]
plasma concentrations of ALT and AST vs control groups ([1]; after each of three repeated injections): no significant difference | ALT [1]: 25.7 ± 1.1 unit/ml | AST [1]: 74.0 ± 3.7 unit/ml | MPV [2]: 6.93 ± 0.08 fL | WBC ([2]; rat, in vivo): 5.48 ± 0.41 10^3/mm^3 | hematocrit ([2]; rat, in vivo): 46.2 ± 0.63% | platelet ([2]; rat, in vivo): 685 ± 12 10^3/mm^3 | total leukocyte count (WBC), platelet count, hematocrit and MPV ([2]; rat, in vivo): no change | preserving dLVP after ischemia-reperfusion, comparison with atenolol (isolated rat heart; 200 μg/rat 4 days before): more effective than atenolol | overall protective effects, comparison with atenolol (isolated rat heart; 1 mg/kg i.v. 4 days before): equivalent to or even better than atenolol | restoration of dLVP, comparison with atenolol (isolated rat heart; 1 mg/kg i.v. 4 days before): to a greater extent than atenolol | ischemia-reperfusion-induced myocardial dysfunction (LVSP, dLVP, LVEDP, CPP) (isolated rat heart): markedly attenuated | ischemia-reperfusion induced ventricular abnormality (dLVP, CPP, LVEDP) (isolated rat heart): beneficial effects; also recorded: markedly attenuated | β1-AR density (Bmax) in ischemic-reperfused myocardium (β1-AR; vs 28.7±5.4 in saline-treated rat hearts): 15.9 ± 1.3 fmol/mg | duration of SBP reduction (SHRs; 0.5 mg/kg i.v., charge ratio 0.5): 7 to 8 days | reduction of SBP (SHRs; 0.5 mg/kg i.v., charge ratio 0.5, representative experiment): up to 33 mm Hg | duration of the hypotensive impact (SHRs; [3]): 20 days | maximum drop in SBP (SHRs; [3]): ≈ 35 mm Hg | duration of the hypotensive impact (SHRs; [4]): 33 days | maximum drop in SBP (SHRs; [4]): ≈ 35 mm Hg | duration of the hypotensive impact (SHRs; [5]): 33 days | maximum drop in SBP (SHRs; [5]): ≈ 25 mm Hg | effect on SBP (SHRs; 0.5 mg/kg i.v., β1-AS-ODN alone (ratio 0)): did not change SBP | reduction of blood pressure throughout the treatment period (SHRs): 20-30 mmHg | duration of diminished SBP (SHRs; [6]): 8 days | maximum drop in SBP (SHRs; [6]): 38±5 mm Hg | Duration (Range) (SHRs; charge ratio 0.5): 7 to 8 days | Range of Reduction (SHRs; charge ratio 0.5): 24-38 mm Hg | Duration (Range) (SHRs; charge ratio 1.5): 18 to 20 days | Range of Reduction (SHRs; charge ratio 1.5): 18-35 mm Hg | Duration (Range) (SHRs; charge ratio 2.5): 20 to 33 days | Range of Reduction (SHRs; charge ratio 2.5): 20-34 mm Hg | Duration (Range) (SHRs; charge ratio 3.5): 20 to 33 days | Range of Reduction (SHRs; charge ratio 3.5): 15-24 mm Hg | Maximum Reduction in Blood Pressure (SHRs; charge ratio liposome/ODN 0): 2 mm Hg | Maximum Reduction in Blood Pressure (SHRs; charge ratio liposome/ODN 0.5): 35-38 mm Hg | Maximum Reduction in Blood Pressure (SHRs; charge ratio liposome/ODN 1.5): 28-35 mm Hg | Maximum Reduction in Blood Pressure (SHRs; charge ratio liposome/ODN 2.5): 30-34 mm Hg | Maximum Reduction in Blood Pressure (SHRs; charge ratio liposome/ODN 3.5): 20-24 mm Hg | hypotensive effect (SHRs; single i.v. injection with cationic liposomes, summary): 30 to 35 mm Hg
